These results are taken from US20200131196A1 (Mount Tam Therapeutics, Inc., priority 2017, published 2020).

This experiment concerns SK-UT-1. The experiment in a line: OncoPanel cell proliferation assay, SK-UT-1. To be noted: for EC50: SK-UT-1, read-out: Cell Count EC50; for GI50: SK-UT-1, read-out: Cell Count GI50; for Cell Count Activity Area: SK-UT-1.

Description: Cells were seeded into 384-well plates and incubated in a humidified atmosphere of 5% CO2 at 37° C. Compounds were added the day following cell seeding. At the same time, a time zero untreated cell plate was generated. After a 3-day incubation period, cells were fixed and stained to allow fluorescence imaging of nuclei. Compounds (1 mM stock solutions) were serially diluted in half-log steps from the highest test concentration (1 micromol), and assayed over 10 concentrations with a maximum assay concentration of 0.1% DMSO. Automated fluorescence microscopy was carried out using a Molecular Devices ImageXpress Micro XL high-content imager, and images were collected with a 4× objective. 16-bit TIFF images were acquired and analyzed with MetaXpress 5.1.0.41 software.
Cell proliferation was measured by the fluorescence intensity of an incorporated nuclear dye. The output is referred to as the relative cell count, where the measured nuclear intensity is transformed to percent of control (POC) using the following formula:
Cellular response parameters were calculated using nonlinear regression to a sigmoidal single-site dose response model:
GI50 is the concentration needed to reduce the observed growth by half (midway between the curve maximum and the time zero value). […] In rare instances, values <0 or >10 may be observed. […] Curve-fitting, calculations, and report generation was performed using a custom data reduction engine and MathIQ based software (AIM).

In the case of `CN[C@@H]1C[C@H]2O[C@@](C)([C@@H]1OC)n1c3ccccc3c3c4c(c5c6ccccc6n2c5c31)C(=O)NC4` [Staurosporine, reference compound], the “Cell Count Activity Area” value is on record as 3.46. Moreover, under “Homo sapiens”, the EC50 (as a rule, the concentration giving half of the maximal effect) came to 21.8 nM and the GI50 (as a rule, the concentration at which growth is held to half of that of the control) is 19.5 nM.

On to `CO[C@H]1C[C@@H]2CC[C@@H](C)[C@@](O)(O2)C(=O)C(=O)N2CCCC[C@H]2C(=O)O[C@H]([C@H](C)C[C@@H]2CC[C@@H](O)[C@H](OC)C2)CC(=O)[C@H](C)/C=C(\C)[C@@H](O)[C@@H](OC)C(=O)[C@H](C)C[C@H](C)/C=C/C=C/C=C/1C` [Rapamycin, reference compound], for which the “Cell Count Activity Area” value stood at 3.23. In addition, where the note is “Homo sapiens”, the EC50 stood at 0.2 nM and the GI50 was > 1000 nM. For the same molecule, the IC50 (in general, the concentration that inhibits the measured activity by half) (Homo sapiens, SK-UT-1, read-out: Cell Count IC50) was > 1000 nM.
